Results on 13 molecules are retold here after patent US20250206738A1, “WRN INHIBITORS” (Nimbus Wadjet, Inc., priority 2023, published 2025).

Bounds are passed on as bounds.

The target in this assay is T1, human Werner helicase (WRN, Uniprot Q14191, amino acids 517-1235 with L1074F point mutation; WRN-BV08) (Homo sapiens, UniProt Q14191, L1074F).
T1 construct: Uniprot Q14191, amino acids 517-1235 with L1074F point mutation; 8xHis (C, cleaved yes); TEV cleavage site (ENLYFQG) (C, cleaved yes); made in house; host or cells: Sf9 insect cells (baculovirus, pFastBac)
T1 sequence (Q14191 with tags, fused parts or gaps L1074F): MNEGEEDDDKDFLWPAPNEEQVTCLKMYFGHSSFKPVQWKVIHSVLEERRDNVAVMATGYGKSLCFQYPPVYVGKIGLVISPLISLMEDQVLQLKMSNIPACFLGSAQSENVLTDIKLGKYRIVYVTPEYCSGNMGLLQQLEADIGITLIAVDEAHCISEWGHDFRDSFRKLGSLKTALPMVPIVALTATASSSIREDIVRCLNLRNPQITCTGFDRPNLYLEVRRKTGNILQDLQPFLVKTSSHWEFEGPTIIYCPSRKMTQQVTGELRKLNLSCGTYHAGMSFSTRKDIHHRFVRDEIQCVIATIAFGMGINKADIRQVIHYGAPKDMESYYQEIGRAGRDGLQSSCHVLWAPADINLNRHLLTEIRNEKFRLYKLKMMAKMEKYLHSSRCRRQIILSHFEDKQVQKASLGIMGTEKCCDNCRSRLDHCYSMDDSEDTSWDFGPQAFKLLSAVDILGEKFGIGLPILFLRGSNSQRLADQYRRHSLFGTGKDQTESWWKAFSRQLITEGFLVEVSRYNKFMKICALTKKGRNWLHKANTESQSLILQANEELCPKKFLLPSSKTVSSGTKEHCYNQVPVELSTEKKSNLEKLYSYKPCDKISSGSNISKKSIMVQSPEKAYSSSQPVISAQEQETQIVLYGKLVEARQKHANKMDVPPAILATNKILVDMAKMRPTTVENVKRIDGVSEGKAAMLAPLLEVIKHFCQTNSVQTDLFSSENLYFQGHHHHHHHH
The experiment in a line: WRN (BV08) ADP-Glo assay. The settings on record: WRN-BV08 (aa 517-1235, L1074F); read-out: ADP-Glo_hWRN_IC50. The assay is classed as biochemical. The text has this:
Example 2: WRN (BV08) ADP-Glo Assay Protocol
Bovine skin gelatin (BSG), dimethyl sulfoxide (DMSO), Pluronic F-127 and tris(2-carboxyethyl)phosphine hydrochloride solution (TCEP) were purchased from Sigma-Aldrich (St. Louis, MO) at the highest level of purity possible. Bicine buffer solution was purchased from Alfa Aesar (Tewksbury, MA) and compound NSC-617145 was purchased from Tocris (Minneapolis, MN). DNA duplex was synthesized at BGI (Shenzhen, China) and was composed of strand 1 with the sequence 5′-[…]-3′ (SEQ ID NO.: 1) and strand 2 with the sequence 5′-[…]-3′ (SEQ ID NO.: 2). DNA strands were annealed by heating to 95° C. for 5 minutes followed by slow cooling to room temperature. Compounds in 100% DMSO ([…]) were spotted into a 384-well white polystyrene Optiplate-384 (Perkin Elmer; Waltham, MA) assay plate using a LabCyte Echo 550 (Agilent; Santa Clara, CA). DMSO ([…]) was added to columns 12, rows A-H and column 24, rows I-P for the maximum signal control. Compound NSC-617145 ([…]) was added to columns 12, rows I-P and 24, rows A-H for the minimum signal control (100% inhibition). Compounds/DMSO were preincubated for 15 minutes at 25° C. with […] 2×WRN (BV08), prepared as described below, in assay buffer containing 20 mM Bicine (pH=7.5), 1 mM MgCl2, 10 mM KCl, 0.1% Pluronic F-127, 0.005% BSG, 1 mM TCEP. The reaction was initiated by the addition of […] 2× substrate mixture in assay buffer and incubated for 60 minutes at 25° C. The final concentrations of the assay components were 0.15 nM WRN, […], and 0.1 nM DNA duplex. The final DMSO concentration was 1% and the reference compound concentration (NSC-617145) used for the minimal signal control was […]. The reaction was stopped by the addition of the ADP-Glo Kit components (Promega; Madison, WI) as directed and the relative luminescence units (RLU) were read on an Envision 2104 (Perkin Elmer; Waltham, MA).
% Inhibition Calculation:
Where RLU=relative luminescence units, sample=signal in sample well, and MIN and MAX are the respective minimum and maximum signal controls.
Four-Parameter IC50 Fit Equation:
Where top and bottom are normally allowed to float but may be fixed at 100 or 0 respectively in a 3-parameter fit. Y is the % inhibition and X is the compound concentration.
Molecular Biology and virus production. The DNA encoding human Werner helicase (Uniprot Q14191, amino acids 517-1235 with L1074F point mutation) was generated with codon-optimization for […] expression and subcloned into the pFastBac vector with a TEV cleavable 8×His tag (SEQ ID NO: 5) (WRN—BV08). The baculovirus from the expression plasmid WRN—BV08 was generated from transfection and amplification following the manufacturer's instructions.
Sf9 cells grown in SF900II media were infected with 1:200 WRN—BV08 P2 virus and incubated for protein expression for 72 h at 27° C. The WRN protein was purified using the following protocol. The cell pellets were thawed and resuspended in buffer A (50 mM Tris, pH 7.5, 500 mM NaCl, 1 mM TCEP, 10% Glycerol) supplemented with 0.5% CHAPS, 1 mM PMSF, 1 μg/ml Leupeptin, 1 μg/ml Pepstatin, and the Pierce Universal Nuclease and cocktail tablet. Cleared lysates were loaded onto a Ni Sepharose™ excel column and washed with buffer A and bound protein was eluted with buffer A supplemented with 300 mM imidazole. The eluted protein was dialyzed against buffer A and digested by His-tagged TEV (1:5 ratio) overnight at 4° C. ZnCl2 was added into the sample at final 15 μM before loading onto a second Ni Sepharose™ excel column. Untagged WRN protein was eluted from the column with buffer A supplemented with 20 mM imidazole, dialyzed overnight into buffer B (50 mM Tris, pH 7.5, 1 mM TCEP, 10% Glycerol) supplemented with 150 mM NaCl and loaded onto a Heparin column. Proteins were eluted with a step gradient of buffer B supplemented with 150 mM, 200 mM, 300 mM and 500 mM NaCl. […]
With `CCc1c(N2CCN(C(=O)c3c(OC)ncc(F)c3O)[C@H]3CC[C@@H]32)c(=O)c2nn(-c3ccnc(OC)c3)nc2n1CC(=O)NC12CC(C(C)C)(C1)C2` [I-166, 2-{5-ethyl-6-[(1S,6S)-5-(5-fluoro-4-hydroxy-2-methoxypyridine-3-carbonyl)-2,5-diazabicyclo[4.2.0]octan-2-yl]-2-(2-methoxypyridin-4-yl)-7-oxo-2H,4H,7H-[1,2,3]triazolo[4,5-b]pyridin-4-yl}-N-[3-(propan-2-yl)bicyclo[1.1.1]pentan-1-yl]acetamide], the IC50 was no more than 5 nM. As for `CCc1c(N2CCN(C(=O)c3ncnc(C)c3O)[C@H]3CC[C@@H]32)c(=O)c2nn(-c3ccnc(OC)c3)nc2n1CC(=O)NC12CC(C3CCC3)(C1)C2` [I-80, N-{3-cyclobutylbicyclo[1.1.1]pentan-1-yl}-2-{5-ethyl-6-[(1S,6S)-5-(5-hydroxy-6-methylpyrimidine-4-carbonyl)-2,5-diazabicyclo[4.2.0]octan-2-yl]-2-(2-methoxypyridin-4-yl)-7-oxo-2H,4H,7H-[1,2,3]triazolo[4,5-b]pyridin-4-yl}acetamide], the IC50 was no more than 5 nM. On to `CCc1c(N2CCN(C(=O)c3ncnc(C)c3O)[C@H]3CC[C@@H]32)c(=O)c2nn(C3=CCOCC3)nc2n1CC(=O)NC1CC2(CCC2)C1` [I-185, 2-[2-(3,6-dihydro-2H-pyran-4-yl)-5-ethyl-6-[(1S,6S)-5-(5-hydroxy-6-methylpyrimidine-4-carbonyl)-2,5-diazabicyclo[4.2.0]octan-2-yl]-7-oxo-2H,4H,7H-[1,2,3]triazolo[4,5-b]pyridin-4-yl]-N-{spiro[3.3]heptan-2-yl}acetamide], for which the IC50 was in the range of 5 to 50 nM. With `CCc1c(N2CCN(C(=O)c3c(O)c(F)cc4ncoc34)[C@H]3CC[C@@H]32)c(=O)c2nn(C3=CCOCC3)nc2n1CC(=O)NC12CC(C3CC3)(C1)C2` [I-182, N-{3-cyclopropylbicyclo[1.1.1]pentan-1-yl}-2-[2-(3,6-dihydro-2H-pyran-4-yl)-5-ethyl-6-[(1S,6S)-5-(5-fluoro-6-hydroxy-1,3-benzoxazole-7-carbonyl)-2,5-diazabicyclo[4.2.0]octan-2-yl]-7-oxo-2H,4H,7H-[1,2,3]triazolo[4,5-b]pyridin-4-yl]acetamide], the IC50 was in the range of 5 to 50 nM.

Regarding `CCc1c(N2CCN(C(=O)c3ncnc(C)c3O)[C@H]3CC[C@@H]32)c(=O)c2nn(-c3ccnc(OC)c3)cc2n1CC(=O)NC12CC(C3CC3)(C1)C2` [I-177, N-{3-cyclopropylbicyclo[1.1.1]pentan-1-yl}-2-{5-ethyl-6-[(1S,6S)-5-(5-hydroxy-6-methylpyrimidine-4-carbonyl)-2,5-diazabicyclo[4.2.0]octan-2-yl]-2-(2-methoxypyridin-4-yl)-7-oxo-2H,4H,7H-pyrazolo[4,3-b]pyridin-4-yl}acetamide], the IC50 lay in the range of 5 to 50 nM. With `CCc1c(N2CCN(C(=O)c3ncnc(C)c3O)[C@H]3CC[C@@H]32)c(=O)c2nn(C3=CCOCC3)nc2n1CC(=O)NC12CC(C(C)(C)C)(C1)C2` [I-184, N-{3-tert-butylbicyclo[1.1.1]pentan-1-yl}-2-[2-(3,6-dihydro-2H-pyran-4-yl)-5-ethyl-6-[(1S,6S)-5-(5-hydroxy-6-methylpyrimidine-4-carbonyl)-2,5-diazabicyclo[4.2.0]octan-2-yl]-7-oxo-2H,4H,7H-[1,2,3]triazolo[4,5-b]pyridin-4-yl]acetamide], the IC50 was in the range of 5 to 50 nM. Regarding `CCc1c(N2CCN(C(=O)c3ncnc(C)c3O)[C@H]3CC[C@@H]32)c(=O)c2nn(C3=CCC(OC)CC3)nc2n1CC(=O)NC12CC(C3CC3)(C1)C2` (stereo partly drawn) [I-163, N-{3-cyclopropylbicyclo[1.1.1]pentan-1-yl}-2-{5-ethyl-6-[(1S,6S)-5-(5-hydroxy-6-methylpyrimidine-4-carbonyl)-2,5-diazabicyclo[4.2.0]octan-2-yl]-2-(4-methoxycyclohex-1-en-1-yl)-7-oxo-2H,4H,7H-[1,2,3]triazolo[4,5-b]pyridin-4-yl}acetamide], the IC50 was in the range of 5 to 50 nM. For `CCc1c(N2CCN(C(=O)c3ncnc(C)c3O)[C@H]3CC[C@@H]32)c(=O)c2nn(-c3ccnc(OC)c3)nc2n1CC(=O)NC12CC(C3CCCC3)(C1)C2` [I-183, N-{3-cyclopentylbicyclo[1.1.1]pentan-1-yl}-2-{5-ethyl-6-[(1S,6S)-5-(5-hydroxy-6-methylpyrimidine-4-carbonyl)-2,5-diazabicyclo[4.2.0]octan-2-yl]-2-(2-methoxypyridin-4-yl)-7-oxo-2H,4H,7H-[1,2,3]triazolo[4,5-b]pyridin-4-yl}acetamide], the IC50 is no more than 5 nM. Then `CCc1c(N2CCN(C(=O)c3ncnc(C)c3O)[C@H]3CCC[C@@H]32)c(=O)c2nn(-c3ccnc(OC)c3)nc2n1CC(=O)NC12CC(C3CC3)(C1)C2` [I-54, 2-{6-[(4aS,7aS)-4-(5-hydroxy-6-methylpyrimidine-4-carbonyl)-octahydro-1H-cyclopenta[b]pyrazin-1-yl]-5-ethyl-2-(2-methoxypyridin-4-yl)-7-oxo-2H,4H,7H-[1,2,3]triazolo[4,5-b]pyridin-4-yl}-N-{3-cyclopropylbicyclo[1.1.1]pentan-1-yl}acetamide], with 5 to 50 nM; and `CCc1c(N2CCN(C(=O)c3ncnc(C)c3O)[C@H]3CC[C@@H]32)c(=O)c2nn(-c3ccnc(C(F)(F)F)c3)nc2n1CC(=O)NC12CC(C3CC3)(C1)C2` [I-165, N-{3-cyclopropylbicyclo[1.1.1]pentan-1-yl}-2-{5-ethyl-6-[(1S,6S)-5-(5-hydroxy-6-methylpyrimidine-4-carbonyl)-2,5-diazabicyclo[4.2.0]octan-2-yl]-7-oxo-2-[2-(trifluoromethyl)pyridin-4-yl]-2H,4H,7H-[1,2,3]triazolo[4,5-b]pyridin-4-yl}acetamide], with 5 to 50 nM; and `CCc1c(N2CCN(C(=O)c3c(COC)cccc3OC)[C@H]3CC[C@@H]32)c(=O)c2nn(C3=CCOCC3)nc2n1CC(=O)NC12CC(C3CC3)(C1)C2` [I-199, N-{3-cyclopropylbicyclo[1.1.1]pentan-1-yl}-2-[2-(3,6-dihydro-2H-pyran-4-yl)-5-ethyl-6-[(1S,6S)-5-[2-methoxy-6-(methoxymethyl)benzoyl]-2,5-diazabicyclo[4.2.0]octan-2-yl]-7-oxo-2H,4H,7H-[1,2,3]triazolo[4,5-b]pyridin-4-yl]acetamide], with 5 to 50 nM. Consider `CCc1c(N2CCN(C(=O)c3ncc4c(c3O)CCO4)CC2)c(=O)n2nc(C3=CCOCC3)nc2n1CC(=O)NC12CC(OC)(C1)C2` [I-12, 2-(2-(3,6-dihydro-2H-pyran-4-yl)-5-ethyl-6-(4-(4-hydroxy-2,3-dihydrofuro[2,3-c]pyridine-5-carbonyl)piperazin-1-yl)-7-oxo-[1,2,4]triazolo[1,5-a]pyrimidin-4(7H)-yl)-N-(3-methoxybicyclo[1.1.1]pentan-1-yl)acetamide], for which the IC50 is greater than 500 nM. Then `CCc1c(N2CCN(C(=O)c3ncc4c(c3O)CCO4)CC2)c(=O)n2nc(C3=CCOCC3)nc2n1CC(=O)NC12CC(C(F)F)(C1)C2` [I-8, N-(3-(difluoromethyl)bicyclo[1.1.1]pentan-1-yl)-2-(2-(3,6-dihydro-2H-pyran-4-yl)-5-ethyl-6-(4-(4-hydroxy-2,3-dihydrofuro[2,3-c]pyridine-5-carbonyl)piperazin-1-yl)-7-oxo-[1,2,4]triazolo[1,5-a]pyrimidin-4(7H)-yl)acetamide], with 100 to 500 nM.
